Reference: patent US7803779B2, “Drugs for the treatment and/or prophylaxis of gastroparesis symptom” (Chugai Seiyaku Kabushiki Kaisha, priority 2005, dated 2010)
Entries after “also recorded” stand apart in the source; their conditions may differ.

Assays:
[1] = tested on: diabetic patients presenting with gastroparesis symptom despite a normal level of gastric emptying; test: Effect of GM-611 on gastroparesis symptom in diabetic patients with a normal level of gastric emptying (Example 1, FIG. 1); format: in vivo, human
Description: FIG. 1, which is titled “Effect of GM-611 on gastroparesis symptom in diabetic patients with a normal level of gastric emptying”, is a graph showing results of evaluating the percentage of responders who were in the patients the gastroparesis symptom regardless a normal level of gastric emptying and who perceived an adequate relief of gastroparesis symptom by the administration of the therapeutic and/or preventive agent against gastroparesis symptom according to the present invention; M1R (month 1 responder) refers to patients who had adequate relief in at least 50% of weekly evaluations for the first one month of medication and CR (complete responder) refers to patients who were evaluated as monthly responder for three consecutive months.
(§1) In the following examples, GM-611 (8,9-didehydro-N-demethyl-9-deoxo-6,11-dideoxy-6,9-epoxy-12-O-methyl-N-(1-methylethyl)-11-oxoerythromycin,(2E)-2-butenedioate) was used as a compound of the formula (1). This compound was synthesized in the laboratories of Chugai Pharmaceutical Co., Ltd. as described in WO02/18403 and WO02/30943. To evaluate the efficacy of GM-611 in improving subjective gastroparesis symptom, diabetic patients on insulin therapy were selected. Since the analyses in the following examples were after the key-open of clinical trial, P<0.01 in a two-tail test was considered to show a significant effect and P<0.1 a tendency.
In order to assess the efficacy of GM-611 in improving subjective gastroparesis symptom, diabetic patients who were presenting with gastroparesis symptom despite a normal level of gastric emptying were selected. […] All assessment in the subjective gastroparesis symptom was evaluated by an electric diary by phone. Starting one week after the initiation of medication, the patients were interviewed every week and asked whether in the past 7 days, you have had adequate relief of your gastroparesis symptoms, and the yes/no answers were recorded. […] Patients who were evaluated as monthly responder for three consecutive months. were assigned as “complete responders” (CR).

[2] = tested on: patients of type 1 diabetes with gastroparesis symptom and a normal level of gastric emptying; test: Effect of GM-611 on gastroparesis symptom in patients of type 1 diabetes with a normal level of gastric emptying (Example 2, FIG. 2); format: in vivo, human; conditions: type 1 diabetes patients only
Description: FIG. 2, which is titled “Effect of GM-611 on gastroparesis symptom in patients of type 1 diabetes with a normal level of gastric emptying”, is a graph showing results of evaluating the percentage of responders who were in the patients of type 1 diabetes with the gastroparesis symptom regardless a normal level of gastric emptying and who perceived an adequate relief of gastroparesis symptom by the administration of the therapeutic and/or preventive agent against gastroparesis symptom according to the present invention; M1R (month 1 responder) refers to patients who had adequate relief in at least 50% of weekly evaluations for the first one month of medication and CR (complete responder) refers to patients who were evaluated as monthly responder for three consecutive months.
as §1
(§2) In order to assess the efficacy of GM-611 in improving subjective gastroparesis symptom, diabetic patients who were presenting with gastroparesis symptom despite a normal level of gastric emptying were selected. […] All assessment in the subjective gastroparesis symptom was evaluated by an electric diary by phone. Starting one week after the initiation of medication, the patients were interviewed every week and asked whether in the past 7 days, you have had adequate relief of your gastroparesis symptoms, and the yes/no answers were recorded. […] Patients who were evaluated as monthly responder for three consecutive months. were assigned as “complete responders” (CR). […]

[3] = tested on: diabetic patients with good glycemic control (hemoglobin A1C no more than 8%) with a normal level of gastric emptying; test: Effect of GM-611 on gastroparesis symptom in diabetic patients of good glycemic control with a normal level of gastric emptying (Example 3, FIG. 3); format: in vivo, human
Description: FIG. 3, which is titled “Effect of GM-611 on gastroparesis symptom in diabetic patients of good glycemic control with a normal level of gastric emptying”, is a graph showing results of evaluating the percentage of responders who were in the diabetic patients with good glycemic control with the gastroparesis symptom regardless a normal level of gastric emptying and who perceived an adequate relief of gastroparesis symptom by the administration of the therapeutic and/or preventive agent against gastroparesis symptom according to the present invention; M1R (month 1 responder) refers to patients who had adequate relief in at least 50% of weekly evaluations for the first one month of medication and CR (complete responder) refers to patients who were evaluated as monthly responder for three consecutive months.
(§3) In the following examples, GM-611 (8,9-didehydro-N-demethyl-9-deoxo-6,11-dideoxy-6,9-epoxy-12-O-methyl-N-(1-methylethyl)-11-oxoerythromycin,(2E)-2-butenedioate) was used as a compound of the formula (1). This compound was synthesized in the laboratories of Chugai Pharmaceutical Co., Ltd. as described in WO02/18403 and WO02/30943. To evaluate the efficacy of GM-611 in improving subjective gastroparesis symptom, diabetic patients on insulin therapy were selected. […]
as §2

[4] = tested on: diabetic patients with a longer-than-ten-year history of diabetes with a normal level of gastric emptying; test: Effect of GM-611 on gastroparesis symptom in diabetic patients of diabetic history longer than 10 years with a normal level of gastric emptying (Example 4, FIG. 4); format: in vivo, human
Description: FIG. 4, which is titled “Effect of GM-611 on gastroparesis symptom in diabetic patients of diabetic history longer than 10 years with a normal level of gastric emptying”, is a graph showing results of evaluating the percentage of responders who were in the diabetic patients of diabetic history longer than 10 years with the gastroparesis symptom regardless a normal level of gastric emptying and who perceived an adequate relief of gastroparesis symptom by the administration of the therapeutic and/or preventive agent against gastroparesis symptom according to the present invention; M1R (month 1 responder) refers to patients who had adequate relief in at least 50% of weekly evaluations for the first one month of medication and CR (complete responder) refers to patients who were evaluated as monthly responder for three consecutive months.
as §3, §2

[5] = tested on: patients with gastroparesis; conditions: 383 patients, both delayed and non-delayed gastric emptying; cited from earlier work
gastric emptying = conditions: clinical; cited from earlier work

SMILES	dose dependency of efficacy [1]	P, CR rate in whole GM-611 treated group vs. placebo group by chi-square test ([1]; complete responders, 3 months)	percentage of responders who had adequate relief in gastroparesis symptom vs placebo group ([1]; twice daily at meals for 3 months, both GM-611 groups)	P, CR rate in whole GM-611 treated group vs. placebo group by chi-square test [2]	dose dependency of efficacy [2]	efficacy in improving the symptom ([2]; normal gastric emptying)	P, CR rate in whole GM-611 treated group vs. placebo group by chi-square test [3]	dose dependency of efficacy [3]	efficacy in improving the symptom [3]	P, CR rate in whole GM-611 treated group vs. placebo group by chi-square test [4]	dose dependency of efficacy [4]	efficacy in improving the symptom [4]	efficacy on gastroparesis symptom [5]	acceleration of gastric emptying (gastric emptying)
CC[C@H]1OC(=O)[C@H](C)[C@@H](O[C@H]2C[C@@](C)(OC)[C@@H](O)[C@H](C)O2)[C@H](C)[C@@H](O[C@@H]2O[C@H](C)C[C@H](N(C)C(C)C)[C@H]2O)[C@@]2(C)CC(C)=C(O2)[C@H](C)C(=O)[C@]1(C)OC.O=C(O)/C=C/C(=O)O [GM-611, 8,9-didehydro-N-demethyl-9-deoxo-6,11-dideoxy-6,9-epoxy-12-O-methyl-N-(1-methylethyl)-11-oxoerythromycin,(2E)-2-butenedioate]	no apparent dose dependency	0.025	greater than those in the placebo group; also recorded: only a tendency to improve the symptom	0.001	dose-dependent	significant	0.010	dose-dependent manner	significant efficacy in improving the symptom	0.001	dose-dependent manner	significant efficacy in improving the symptom	–	–
CC[C@H]1OC(=O)[C@H](C)[C@@H](O[C@H]2C[C@@](C)(OC)C[C@H](C)O2)[C@H](C)[C@@H](O[C@@H]2O[C@H](C)C[C@H](N(C)CC)[C@H]2O)[C@@]2(C)CC(C)=C(O2)[C@H](C)[C@@H](O)[C@H]1C [ABT-229]	–	–	–	–	–	–	–	–	–	–	–	–	no efficacy	capable of accelerating gastric emptying
